# Where two headings read alike, the source gives them in different places.
# What was measured:
# [1] = tested on: Plasmodium falciparum 3D7-A10 parasites; test: Stage specificity assay (8-h exposure of synchronized stages, IC50^8h); assay type: cell-based; settings: for IC50: Plasmodium falciparum
# [2] = tested on: asynchronous 3D7-A10 parasite cultures; test: Standard 72-h exposure asexual blood stage susceptibility assay (IC50^72h); assay type: cell-based, Plasmodium falciparum; settings: Plasmodium falciparum, 3D7, 72 h, read-out: Overall (72hr assay) Mean IC50 (IC50^72h)
# [3] = tested on: 3D7-MR4 trophozoite parasite-infected RBCs; settings: 10 × IC50^72h; ref Allman et al., 2016; cited from earlier work
# [4] = tested on: 3D7-MR4 trophozoite parasite-infected RBCs; test: Metabolomic profiling (hydrophilic metabolite changes, UHPLC-MS); assay type: cell-based, Plasmodium falciparum
smiles,measurement,setting,value
"CCN(CC)CCCC(C)Nc1ccnc2cc(Cl)ccc12 (stereo not drawn) [Chloroquine, reference compound]",IC50,"[1]; 3D7, read-out: Early rings Mean IC50 (IC50^8h)",17.8 nM
same,IC50,"[1]; 3D7, read-out: Early trophozoites Mean IC50 (IC50^8h)",17.4 nM
same,IC50,"[1]; 3D7, read-out: IC50^8h values",< 300 nM
same,IC50,"[1]; 3D7, read-out: Late rings Mean IC50 (IC50^8h)",18.6 nM
same,IC50,"[1]; 3D7, read-out: Late trophozoites Mean IC50 (IC50^8h)",30.1 nM
same,IC50,"[1]; 3D7, read-out: Schizonts Mean IC50 (IC50^8h)",60.3 nM
same,IC50,[2],5.9 nM
same,"increased levels of dAMP, dUTP, cytidine, xanthosine, and N-acetyl-lysine",[3],> 2 fold
same,peptide levels (hemoglobin catabolism signature),[3],more modest decrease in peptide levels
"CC(C)C[C@@H](/C=C/S(C)(=O)=O)NC(=O)[C@H](CC(C)C)NC(=O)[C@H](Cc1c[nH]c2ccccc12)NC(=O)CN1CCOCC1 [WLL-vs, reference compound]",IC50,"[1]; 3D7, read-out: Early rings Mean IC50 (IC50^8h), 8-h exposure 0–8 hr, 3D7-A10, survival at 60 h",23.7 nM
same,IC50,"[1]; 3D7, read-out: Early trophozoites Mean IC50 (IC50^8h), 8-h exposure 16–24 hr, 3D7-A10, survival at 60 h",57.6 nM
same,IC50,"[1]; 3D7, read-out: Late rings Mean IC50 (IC50^8h), 8-h exposure 8–16 hr, 3D7-A10, survival at 60 h",29.4 nM
same,IC50,"[1]; 3D7, read-out: Late trophozoites Mean IC50 (IC50^8h), 8-h exposure 24–32 hr, 3D7-A10, survival at 60 h",47.1 nM
same,IC50,"[1]; 3D7, read-out: Schizonts Mean IC50 (IC50^8h), 8-h exposure 32–40 hr, 3D7-A10, survival at 60 h",50.1 nM
same,Stage of peak activity (Figure 6),[1]; period when the parasite was most susceptible (lowest IC50^8h),ring stages
same,IC50,[2],7.2 nM
same,changes within the set of metabolites detected (low fold change group),"[4]; 10 × IC50^72h, 2.5 hr, trophozoites",did not induce major changes
same,Log2(fold changes) 3-phosphoglycerate,"[4]; metabolite 3-phosphoglycerate, log2 fold change",-0.1339
same,Log2(fold changes) 4-Pyridoxic acid,"[4]; metabolite 4-Pyridoxic acid, log2 fold change",0.0000
same,Log2(fold changes) 4-aminobutyrate,"[4]; metabolite 4-aminobutyrate, log2 fold change",-0.0215
same,Log2(fold changes) 4-phosphopantetheine,"[4]; metabolite 4-phosphopantetheine, log2 fold change",0.0000
same,Log2(fold changes) 4-phosphopantothenate,"[4]; metabolite 4-phosphopantothenate, log2 fold change",-0.0913
same,Log2(fold changes) 5-aminopentanoic acid,"[4]; metabolite 5-aminopentanoic acid, log2 fold change",0.0000
same,Log2(fold changes) 5-methyl-THF,"[4]; metabolite 5-methyl-THF, log2 fold change",0.0000
same,Log2(fold changes) 5-phosphoribosyl-1-pyrophosphate,"[4]; metabolite 5-phosphoribosyl-1-pyrophosphate, log2 fold change",-0.1277
same,Log2(fold changes) 6-phospho-D-gluconate,"[4]; metabolite 6-phospho-D-gluconate, log2 fold change",-0.0373
same,Log2(fold change) HVDD,[4]; metabolite HVDD,-0.5028
same,Log2(fold change) Hydroxyisocaproic acid,[4]; metabolite Hydroxyisocaproic acid,0.0000
same,Log2(fold change) IDP,[4]; metabolite IDP,0.0000
same,Log2(fold change) IMP,[4]; metabolite IMP,0.0400
same,Log2(fold change) Inositol,[4]; metabolite Inositol,0.0000
same,Log2(fold change) Isopentyl-PP,[4]; metabolite Isopentyl-PP,0.0000
same,Log2(fold change) L-arginino-succinate,[4]; metabolite L-arginino-succinate,0.0000
same,Log2(fold change) LD,[4]; metabolite LD,0.0000
same,Log2(fold change) Myristoyl/tetradecanoyl-CoA,[4]; metabolite Myristoyl/tetradecanoyl-CoA,0.0000
same,Log2(fold change) N-Acetyl-L-alanine,[4]; metabolite N-Acetyl-L-alanine,-0.0632
same,Log2(fold change) N-acetyl-L-ornithine,[4]; metabolite N-acetyl-L-ornithine,-0.0046
same,Log2(fold change) N-acetyl-glucosamine-1/6-phosphate,[4]; metabolite N-acetyl-glucosamine-1/6-phosphate,-0.0854
same,Log2(fold change) N-acetyl-glutamate,[4]; metabolite N-acetyl-glutamate,0.1610
same,Log2(fold change) N-acetyl-glutamine,[4]; metabolite N-acetyl-glutamine,0.0000
same,Log2(fold change) N-carbamoyl-L-aspartate,[4]; metabolite N-carbamoyl-L-aspartate,0.1147
same,Log2(fold change) NAD+,[4]; metabolite NAD+,0.0000
same,Log2(fold change) NADH,[4]; metabolite NADH,0.3385
same,Log2(fold change) NADP+,[4]; metabolite NADP+,-0.1225
same,Log2(fold change) NADPH,[4]; metabolite NADPH,0.0976
same,Log2(fold change) O-acetyl-L-serine,[4]; metabolite O-acetyl-L-serine,0.0000
same,Log2(fold change) Octoluse 8/1P,[4]; metabolite Octoluse 8/1P,0.0000
same,Log2(fold change) Octoluse Bisphosphate,[4]; metabolite Octoluse Bisphosphate,-0.1506
same,Log2(fold change) PD,[4]; metabolite PD,-0.2643
same,Log2(fold change) PE,[4]; metabolite PE,-0.3236
same,Log2(fold change) PEE,[4]; metabolite PEE,-0.1344
same,Log2(fold change) PEEK,[4]; metabolite PEEK,0.0000
same,Log2(fold change) PVNF,[4]; metabolite PVNF,-0.5296
same,Log2(fold change) Pyroglutamic acid,[4]; metabolite Pyroglutamic acid,0.0000
same,Log2(fold change) Pyrophosphate,[4]; metabolite Pyrophosphate,0.0000
same,Log2(fold change) Ribose-5-phosphate,[4]; metabolite Ribose-5-phosphate,-0.2996
same,Log2(fold change) S-adenosyl-L-homocysteine,[4]; metabolite S-adenosyl-L-homocysteine,-0.2761
same,Log2(fold change) S-adenosyl-L-methioninamine,[4]; metabolite S-adenosyl-L-methioninamine,0.0000
same,Log2(fold change) S-adenosyl-L-methionine,[4]; metabolite S-adenosyl-L-methionine,0.0000
same,Log2(fold change) S-methyl-5'-thioadenosine,[4]; metabolite S-methyl-5'-thioadenosine,0.0000
same,Log2(fold change) SD,[4]; metabolite SD,-0.1301
same,Log2(fold change) SDL,[4]; metabolite SDL,0.0000
same,Log2(fold change) SID,[4]; metabolite SID,-0.3691
same,Log2(fold change) Sedoheptulose bisphosphate,[4]; metabolite Sedoheptulose bisphosphate,-0.1909
same,Log2(fold change) Thiamine pyrophosphate,[4]; metabolite Thiamine pyrophosphate,0.0000
same,Log2(fold changes) UDP-D-glucose,"[4]; metabolite UDP-D-glucose, log2 fold change",-0.0066
same,Log2(fold changes) UDP-D-glucuronate,"[4]; metabolite UDP-D-glucuronate, log2 fold change",-0.1270
same,Log2(fold changes) UDP-N-acetyl-glucosamine,"[4]; metabolite UDP-N-acetyl-glucosamine, log2 fold change",-0.0647
same,Log2(fold changes) UDP,"[4]; metabolite UDP, log2 fold change",-0.3774
same,Log2(fold changes) UMP,"[4]; metabolite UMP, log2 fold change",0.1341
same,Log2(fold changes) UTP,"[4]; metabolite UTP, log2 fold change",-0.1532
same,Log2(fold change) hydroxyphenylpyruvate,[4]; metabolite hydroxyphenylpyruvate,0.0000
same,Log2(fold change) hydroxyproline/Aminolevulinate,[4]; metabolite hydroxyproline/Aminolevulinate,-0.0172
same,Log2(fold change) hypoxanthine,[4]; metabolite hypoxanthine,0.1957
same,Log2(fold change) indole,[4]; metabolite indole,0.0000
same,Log2(fold change) inosine,[4]; metabolite inosine,0.0926
same,Log2(fold change) isoleucine,[4]; metabolite isoleucine,0.0638
same,Log2(fold change) lactate,[4]; metabolite lactate,-0.1762
same,Log2(fold change) leucine,[4]; metabolite leucine,-0.0424
same,Log2(fold change) lysine,[4]; metabolite lysine,0.0000
same,Log2(fold change) malate,[4]; metabolite malate,-0.1070
same,Log2(fold change) maleic acid,[4]; metabolite maleic acid,-0.1330
same,Log2(fold change) methionine,[4]; metabolite methionine,0.1427
same,Log2(fold change) myo-inositol,[4]; metabolite myo-inositol,0.0000
same,Log2(fold change) nicotinamide mononucleotide,[4]; metabolite nicotinamide mononucleotide,0.0000
same,Log2(fold change) nicotinate,[4]; metabolite nicotinate,0.0441
same,Log2(fold change) ornithine,[4]; metabolite ornithine,0.0000
same,Log2(fold change) orotate,[4]; metabolite orotate,-0.0939
same,Log2(fold change) orotidine-5'-phosphate,[4]; metabolite orotidine-5'-phosphate,-0.0654
same,Log2(fold change) oxaloacetate,[4]; metabolite oxaloacetate,0.0000
same,Log2(fold change) p-aminobenzoate,[4]; metabolite p-aminobenzoate,0.0000
same,Log2(fold change) p-hydroxybenzoate,[4]; metabolite p-hydroxybenzoate,0.0000
same,Log2(fold change) pantothenate,[4]; metabolite pantothenate,-0.2167
same,Log2(fold change) phenylalanine,[4]; metabolite phenylalanine,0.0156
same,Log2(fold change) phenylpyruvate,[4]; metabolite phenylpyruvate,0.0000
same,Log2(fold change) phosphoenolpyruvate,[4]; metabolite phosphoenolpyruvate,-0.0337
same,Log2(fold change) prephenate,[4]; metabolite prephenate,0.0000
same,Log2(fold change) proline,[4]; metabolite proline,-0.1122
same,Log2(fold change) pyridoxine,[4]; metabolite pyridoxine,0.0678
same,Log2(fold change) pyruvate,[4]; metabolite pyruvate,-0.3415
same,Log2(fold change) riboflavin,[4]; metabolite riboflavin,0.0000
same,Log2(fold change) ribose,[4]; metabolite ribose,0.1290
same,Log2(fold change) ribose-phosphate,[4]; metabolite ribose-phosphate,-0.4836
same,Log2(fold change) ribulose-5-phosphate,[4]; metabolite ribulose-5-phosphate,-0.5090
same,Log2(fold change) serine,[4]; metabolite serine,-0.0671
same,Log2(fold change) sn-glycerol-3-phosphate,[4]; metabolite sn-glycerol-3-phosphate,-0.0482
same,Log2(fold change) succinate/Methylmalonic acid,[4]; metabolite succinate/Methylmalonic acid,0.1064
same,Log2(fold change) succinyl-CoA/methylmalonyl-CoA,[4]; metabolite succinyl-CoA/methylmalonyl-CoA,-0.0054
same,Log2(fold change) taurine,[4]; metabolite taurine,0.0000
same,Log2(fold change) thiamine,[4]; metabolite thiamine,0.0000
same,Log2(fold change) threonine/homoserine,[4]; metabolite threonine/homoserine,-0.1507
same,Log2(fold change) thymidine,[4]; metabolite thymidine,0.0000
same,Log2(fold changes) thymine,"[4]; metabolite thymine, log2 fold change",0.0000
same,Log2(fold changes) trehalose-6-Phosphate,"[4]; metabolite trehalose-6-Phosphate, log2 fold change",0.0000
same,Log2(fold changes) tryptophan,"[4]; metabolite tryptophan, log2 fold change",-0.0680
same,Log2(fold changes) tyrosine,"[4]; metabolite tyrosine, log2 fold change",-0.0190
same,Log2(fold changes) uridine,"[4]; metabolite uridine, log2 fold change",0.0000

# From article PMC7031696 (Cell chemical biology, 2019)
